From US7763287B2, “Extract of Cercis chinensis having anti-oxidant activity and anti-aging activity, and cosmetical composition containing the extract for anti-oxidation, skin-aging protection and wrinkle improvement” (Hankook Pharm. Co., Inc., priority 2002, dated 2010)

What was measured:
Assay type in all cases: cell-based, human
HEK-N/F cells [1] = assay: Cell protection from UV irradiation (DNA damage, ethidium homodimer fluorescence); details: 35 mJ/cm^2 UVB, Et2 fluorescence (DNA damage)
Procedure: UV irradiation induces DNA damage and DNA-protein connection by increasing active oxygen in cells. When HEK-N/F cells were irradiated by 35 mJ/cm^2 of UVB, DNA chains in nucleus were cut. After uniting the broken chains to ethidium homodimer (Et2), a DNA chain intercalating fluorescent dye, extent of fluorescence was measured to quantify the amount of DNA damage. Particularly, HEK-N/F cells were cultured on serum-free KGM medium (Clonetics), which were inoculated into wells of a 24-well plate by 0.5−4×10^4 cells/2 cm^2. Then, the cells were cultured for 18 hours, after which a sample was treated thereto for 2 hours. […] The cells exposed on UV were further cultured for 1-7 hours, and then, […] ethidium homodimer (Et2, Millipore) was added. 30 minutes later, fluorescence was measured with Millipore microplate fluorometer Cytofluor 2350 (excitation: 485 nm, emission: 645 nm).

HEK-N/F cells [2] = assay: Prolongation of life span of a cell; details: 3 μg/ml during culture
Procedure: HEK-N/F cells were obtained from foreskin of a newborn baby after its fibroblasts, another major component of skin, were treated with uridine bromide. Then, the cells were cultured in DMEM medium supplemented with 10 FBS. HEK-N/F cells were diluted consecutively at the ratio of 1:4 during the culture. Before being treated with samples, the cells were grown up to 3 PDL (population doubling level). During the culture, each sample was administered by […]. Medium was replaced every three days by fresh medium supplemented with a culture solution containing the equal concentration of the sample.

HEK-N/F cells [3] = assay: Telomere length / maximum PDL (Southern blot of TRFs)
Procedure: In the above Example 8, an extract of […] chinensis and active ingredients separated from the same were confirmed to have an effect of prolongation of life span of a cell. Thus, in this example, relation between the effect of prolongation of life span and the length of a telomere was investigated. Particularly, genomic DNA was extracted from each cell of different ages by using a nucleic acid extraction kit (Isoquick Nucleic Acid Extraction kit, ORCA Research Inc.), which was stored at 4° C. after being dissolved in Tris-EDTA solution (10 mM Tris-HCl, 1 mM EDTA, pH 8.0). 2 μl of 10×H buffer solution (TaKaRa), 2 μl of the extracted genomic DNA solution and distilled water were all mixed in a 1.5 ml tube, making final volume 19 μl. Then, 1 μl at of restriction enzyme […]) was added thereto. […] Then, the gel was immersed in 0.25 N HCl, followed by shaking for 15 minutes. The gel was washed twice with distilled water. This gel was dipped into denaturing solution (0.2 N NaOH, 0.6 M NaCl), followed by shaking for 25 minutes at room temperature. And then, the gel was washed three times with distilled water. On a blotting device filled with 6×SSC, nitrocellulose membrane (Optitran BA-S 85, Schleicher & Schuel), 3 mm filter paper, paper towel, glass plate and weight (2 kg) were loaded in that order, followed by blotting overnight. After the blotting was finished, membrane filter was soaked in 3×SSC, and then water was discarded smoothly. The positions of the wells on the membrane were marked. The membrane was placed between filter papers, followed by baking at 80° C. for overnight. […] After being dried, the membrane was covered with wrap and set in a cassette on which X-ray film (Scientific Imaging Film, Kodak) and intensifying screen were attached. Autoradiography was performed at -80° C. for overnight. Based on the developed film and the location of the membrane, the positions of the wells were marked by a magic pen. The density peak of TRFs was detected by a laser densitometer (UltroScan XL, Pharmacia) and its mobility was calculated.

## O=c1c(O)c(-c2cc(O)c(O)c(O)c2)oc2cc(O)cc(O)c12 [Chemical Formula 9, myricetin]
HEK-N/F cells [1]
  fluorescence lower than that of a control: 54.7%
HEK-N/F cells [2]
  average life span of a cell: 56 days
  life span, times as long as that of a control: 1.6 times
HEK-N/F cells [3]
  telomere shortening speed delayed, comparing to control: 1.6 times
HEK-N/F cells [3]; control 14.1
  maximum PDL: 23.1
